Data reported in patent US6376670B1, “Quinoline-indole antimicrobial agents, uses and compositions related thereto” (Sepracor Inc., priority 1997, dated 2002).
Like-named read-outs stand apart in the source and are kept apart here.

Assays:
Experiment in all cases: Determination of MIC values (BHI broth, 96 well microtiter plate)
Format in all cases: cell-based
Streptococcus pneumoniae = conditions: Streptococcus pneumoniae, read-out: MIC S. pneu
Method in brief: (§1)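 Broth microdilution in BHI broth used final compound concentrations of 25 to 0.39 μg/mL, diluted from DMSO solutions. Inoculum was 10^5–10^6 cells/mL from cultures grown to a 0.5 McFarland standard. Plates were incubated overnight (~16 h) at 37 °C in about 7–10% CO2; MIC was the lowest concentration with no visible growth.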

[1] = test system: vancomycin-resistant Enterococcus spp. (VRE); conditions: for MIC: Enterococcus, VRE, read-out: MIC VREF
Method in brief: as §1

[2] = test system: methicillin-resistant Staphylococcus aureus (MRSA); conditions: MRSA; for MIC: Staphylococcus aureus, read-out: MIC MRSA
Method in brief: as §1

[3] = BHI broth, 37° C., overnight (about 16 hours)
[4] = 16 h, BHI broth, 37° C., overnight (about 16 hours)
[5] = S. pneu, BHI broth, overnight 37° C.
[6] = VREF, BHI broth, overnight 37° C.
[7] = BHI broth, 37° C., about 16 hours
[8] = 16 h, BHI broth, 37° C., about 16 hours

SMILES | MIC (Streptococcus pneumoniae; [5]) [µg/mL] | MIC [1, 6] [µg/mL] | MIC ([2]; BHI broth, overnight 37° C.) [µg/mL] | other results
C[Si](C)(C)CCOC(=O)n1cc(-c2nc3ccc(Cl)cc3c3c2CCO3)c2cc(Br)ccc21 [Example 421] | – | – | – | MIC (Streptococcus pneumoniae; 16 h): > 25 µg/mL; MIC ([1]; 16 h): > 25 µg/mL; MIC ([2]; 16 h): > 25 µg/mL
COc1ccc(NC(=O)c2cc(-c3c[nH]c4ccc(Br)cc34)nc3ccc(I)cc23)cc1 [Example 174] | – | – | – | MIC (Streptococcus pneumoniae; [3]): < 25 µg/mL; MIC [1, 4]: > 25 µg/mL; MIC [2, 4]: < 7 µg/mL
NCC1CCC(CNC(=O)c2cc(-c3c[nH]c4ccc(Br)cc34)nc3c(Cl)c(Cl)ccc23)CC1 (stereo not drawn) [Example 277] | < 7 | < 7 | < 7 | –
Cc1ccc2nc(-c3c[nH]c4ccc(OCc5ccccc5)cc34)ccc2c1 [Example 469] | – | – | – | MIC (Streptococcus pneumoniae; [7]): < 7 µg/mL; MIC [1, 8]: > 25 µg/mL; MIC [2, 8]: < 7 µg/mL
NCc1ccc(CNC(=O)c2cc(-c3c[nH]c4ccc(Br)cc34)nc3ccc(/C=C/c4ccccc4)cc23)cc1 [Example 228] | > 25 | > 25 | > 25 | –
NCc1ccc(CNC(=O)c2cc(-c3c[nH]c4ccc(Br)cc34)nc3cc(Cl)c(C#CCN4CC=CCC4)cc23)cc1 [Example 282] | < 7 | < 7 | < 7 | –
OCc1cc(-c2c[nH]c3ccc(Br)cc23)nc2cc(I)ccc12 [Example 453] | – | – | – | MIC (Streptococcus pneumoniae; [7]): < 7 µg/mL; MIC [1, 8]: < 7 µg/mL; MIC [2, 8]: < 7 µg/mL
Cc1ccc2nc(-c3c[nH]c4cc(F)ccc34)ccc2c1 [Example 435] | – | – | – | MIC (Streptococcus pneumoniae; [7]): > 25 µg/mL; MIC [1, 8]: > 25 µg/mL; MIC [2, 8]: > 25 µg/mL
COc1ccc2[nH]cc(-c3cc(Cl)c4ccccc4n3)c2c1 [Example 348] | < 7 | > 25 | < 7 | –
NCC1CCCC(CNC(=O)c2cc(-c3c[nH]c4ccc(Br)cc34)nc3cc(I)ccc23)C1 (stereo not drawn) [Example 250] | < 7 | < 7 | < 7 | –
Brc1ccc2c(CNCc3ccccc3)cc(-c3c[nH]c4ccc(Br)cc34)nc2c1 [Example 373] | < 7 | < 7 | < 7 | –
Clc1ccc2nc(-c3c[nH]c4ccc(Cl)cc34)ccc2c1 [Example 287] | < 7 | > 25 | < 7 | –
Clc1cc(-c2c[nH]c3ccccc23)nc2ccccc12 [Example 451] | – | – | – | MIC (Streptococcus pneumoniae; [7]): < 7 µg/mL; MIC [1, 8]: > 25 µg/mL; MIC [2, 8]: < 7 µg/mL
COc1ccc(NC(=O)c2cc(-c3c[nH]c4ccc(Br)cc34)nc3ccccc23)cc1 [Example 48] | – | – | – | MIC (Streptococcus pneumoniae; [3]): < 7 µg/mL; MIC [1, 4]: > 25 µg/mL; MIC [2, 4]: < 7 µg/mL
NCc1ccc(CNC(=O)c2cc(-c3c[nH]c4ccc(Br)cc34)nc3c(F)cccc23)cc1 [Example 256] | < 7 | < 7 | < 7 | –
NC1CCC(NC(=O)c2cc(-c3c[nH]c4ccc(Br)cc34)nc3ccc(I)cc23)CC1 (stereo not drawn) [Example 113] | – | – | – | MIC (Streptococcus pneumoniae; [3]): < 7 µg/mL; MIC [1, 4]: < 7 µg/mL; MIC [2, 4]: < 7 µg/mL
Cn1cc(-c2cc(C(=O)NCCN)c3cc(C#CCN4CCCCC4)ccc3n2)c2cc(Br)ccc21 [Example 377] | < 7 | < 7 | < 7 | –
NCC1CCCC(CNC(=O)c2cc(-c3c[nH]c4ccc(Br)cc34)nc3ccc(Cl)cc23)C1 (stereo not drawn) [Example 132] | – | – | – | MIC (Streptococcus pneumoniae; [3]): < 7 µg/mL; MIC [1, 4]: < 7 µg/mL; MIC [2, 4]: < 7 µg/mL
NCc1ccc(CNC(=O)c2cc(-c3c[nH]c4ccc(Br)cc34)c3ccccc3n2)cc1 [Example 306] | < 7 | < 7 | < 7 | –
N#Cc1ccc2[nH]cc(-c3cc(Cl)c4ccc(Cl)cc4n3)c2c1 [Example 462] | – | – | – | MIC (Streptococcus pneumoniae; [7]): > 25 µg/mL; MIC [1, 8]: > 25 µg/mL; MIC [2, 8]: > 25 µg/mL
Cn1cc(-c2cc(C(=O)NCC3CCCC(CN)C3)c3cc(Cl)ccc3n2)c2cc(Br)ccc21 (stereo not drawn) [Example 369] | < 7 | < 7 | < 7 | –
Cn1cc(-c2cc(C(=O)NCc3ccc(CN)cc3)c3cc(Cl)ccc3n2)c2cc(Br)ccc21 [Example 365] | < 7 | < 7 | < 7 | –
NCCCCNC(=O)c1cc(-c2c[nH]c3ccc(Br)cc23)nc2ccc(I)cc12 [Example 109] | – | – | – | MIC (Streptococcus pneumoniae; [3]): < 7 µg/mL; MIC [1, 4]: < 7 µg/mL; MIC [2, 4]: < 7 µg/mL
NCC1CCCC(CNC(=O)c2cc(-c3c[nH]c4ccc(Br)cc34)nc3cc(F)ccc23)C1 (stereo not drawn) [Example 298] | < 7 | – | – | MIC VREF [1, 6]: <7 µg/mL; MIC MRSA ([2]; BHI broth, overnight 37° C.): < 7 µg/mL
Cc1cccc2c(-c3ccc4cc(Cl)ccc4n3)cn(C)c12 [Example 217] | < 7 | < 25 | < 25 | –
NCCNC(=O)c1cc(-c2c[nH]c3ccc(Br)cc23)nc2c(Cl)cccc12 [Example 318] | < 7 | < 7 | < 7 | –
